Test results reported in ChEMBL document CHEMBL1201862, “PubChem BioAssay data set” (2004).
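Interpolation was linear, between the two tested concentrations surrounding the appropriate level; five concentrations were tested over 48 hours in 96-well plates. Abbreviation: GI50, concentration required for 50% inhibition of growth.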 Activity calls are given as the source filed them. Rule as the data show it: active = GI50 up to about 1.1 µM and inactive = higher.

Assays:
Assay in all cases: NCI tumour cell line growth inhibition, 48 h
M14 = test system: M14
CAKI-1 = test system: CAKI-1
NCI-H23 = test system: NCI-H23
NCI-H522 = test system: NCI-H522
SF-268 = test system: SF-268
MDA-N = test system: MDA-N
SK-MEL-2 = test system: SK-MEL-2
HOP-92 = test system: HOP-92
U-251 = test system: U-251
OVCAR-8 = test system: OVCAR-8
MOLT-4 = test system: MOLT-4
DU-145 = test system: DU-145
OVCAR-3 = test system: OVCAR-3
EKVX = test system: EKVX
HCT-116 = test system: HCT-116
UO-31 = test system: UO-31
CCRF-CEM = test system: CCRF-CEM
UACC-257 = test system: UACC-257
K562 = test system: K562
HCC 2998 = test system: HCC 2998

Measured: GI50

CC1=C2C(=O)NN=C2CCN1c1ccc(Br)cc1
inactive: M14 > 100 µM | CAKI-1 > 100 µM | NCI-H23 > 100 µM | NCI-H522 > 100 µM | SF-268 > 100 µM | MDA-N > 100 µM | SK-MEL-2 > 100 µM | HOP-92 > 100 µM | U-251 > 100 µM | OVCAR-8 > 100 µM | MOLT-4 9.62 µM | DU-145 > 100 µM | OVCAR-3 > 100 µM | EKVX > 100 µM | HCT-116 > 100 µM | UO-31 54.3 µM | CCRF-CEM 2.2 µM | UACC-257 > 100 µM

COc1cccc(C2c3cc4c(cc3OC(O)C2C)OCO4)c1OC (stereo not given)
inactive: M14 11.1 µM | K562 2.7 µM | CAKI-1 2.14 µM | NCI-H23 14.4 µM | SF-268 7.36 µM | MDA-N 8.67 µM | SK-MEL-2 5.2 µM | HOP-92 1.66 µM | U-251 3.27 µM | OVCAR-8 3.06 µM | MOLT-4 2.16 µM | DU-145 2.98 µM | OVCAR-3 2.79 µM | EKVX 20.1 µM | HCC 2998 14.9 µM | HCT-116 2.35 µM | CCRF-CEM 2.61 µM | UACC-257 7.18 µM

COC1C(N(C)C)=C(c2ccccc2)C(=O)N2CCc3ccccc3C12 (stereo not given)
inactive: M14 > 100 µM | CAKI-1 > 100 µM | NCI-H23 > 100 µM | NCI-H522 > 100 µM | SF-268 > 100 µM | MDA-N > 100 µM | SK-MEL-2 > 100 µM | HOP-92 > 100 µM | U-251 > 100 µM | OVCAR-8 > 100 µM | MOLT-4 79.1 µM | DU-145 > 100 µM | EKVX > 100 µM | HCT-116 > 100 µM | UO-31 > 100 µM | CCRF-CEM > 100 µM | UACC-257 > 100 µM

Nc1ccc(S(=O)(=O)NCc2nccs2)cc1
inactive: M14 18.2 µM | K562 23.5 µM | CAKI-1 28.4 µM | NCI-H23 22.4 µM | NCI-H522 16.6 µM | SF-268 18.6 µM | MDA-N 22.3 µM | SK-MEL-2 20 µM | HOP-92 18.8 µM | U-251 21.8 µM | OVCAR-8 32.7 µM | MOLT-4 23.2 µM | DU-145 29 µM | OVCAR-3 34 µM | EKVX 17.3 µM | HCT-116 19 µM | UO-31 22.3 µM | CCRF-CEM 18.2 µM | UACC-257 17.7 µM

Cc1nn2c(C(=O)N/N=C/c3ccc([N+](=O)[O-])cc3)c(C)nc2s1
inactive: M14 > 100 µM | K562 94.2 µM | CAKI-1 > 100 µM | NCI-H23 > 100 µM | NCI-H522 51.2 µM | SF-268 > 100 µM | MDA-N > 100 µM | HOP-92 > 100 µM | U-251 23.6 µM | OVCAR-8 > 100 µM | MOLT-4 41 µM | DU-145 > 100 µM | OVCAR-3 > 100 µM | EKVX > 100 µM | HCC 2998 > 100 µM | HCT-116 > 100 µM | UO-31 34.4 µM | CCRF-CEM > 100 µM | UACC-257 > 100 µM

Cc1cc(-c2nc3cccc(O)c3s2)ccc1N
inactive: M14 16.2 µM | K562 45.4 µM | CAKI-1 20.8 µM | NCI-H23 24.6 µM | SF-268 17.6 µM | MDA-N 31.3 µM | SK-MEL-2 34.7 µM | HOP-92 43.8 µM | U-251 41.1 µM | OVCAR-8 24.2 µM | MOLT-4 28.2 µM | DU-145 > 100 µM | OVCAR-3 44.4 µM | EKVX 15.7 µM | HCC 2998 45.3 µM | HCT-116 27.3 µM | UO-31 4.43 µM | CCRF-CEM 25.8 µM | UACC-257 37.2 µM
